From US20230247992A1, “ARTHROPOD CONTROL COMPOSITION” (Firmenich SA, priority 2020, published 2023)

Columns and labels:
Aedes aegypti [1] = assay: in vitro Warm Body assay, substance introduced in the cage air by forced evaporation (spatial repellence); format: in vivo
Method: (§1) The controlling effect, repellence & spatial repellence, according to the present invention is determined by testing the Warm Body assay against the yellow fever mosquito, Aedes aegypti Rockefeller strain. […] Observations of controlling efficacy were made on host-seeking females of uniform age, 5 to 10 days old selected as mentioned in the publication mentioned hereinabove. Tested hungry females had access to 10% sugar solution but were not blood-fed. Further information is provided in the accompanying examples.
(§2) The published protocol has been adapted in not manually counting the landing mosquitoes but automatically using an automatic counting software, the switch from Anopheles gambiae to A. aegypti led to a decrease of mosquitoes’ number placed in the tested cage due to the size difference (i.e. 30 mosquitoes instead of 50) and to an increase of lighting as A. aegypti is a diurnal mosquitoes (i.e. 150 lux instead of 4 lux). Further information is provided in the accompanying examples.,
(§3) The controlling effect of the compositions according to the present invention was assessed using an adapted Warm Body assay as defined in Kröber T, Kessler S, Frei J, Bourquin M, Guerin PM. 2010. An in vitro assay for testing mosquito controlling compounds employing a warm body and carbon dioxide as a behavioral activator. J Am Mosq Control Assoc. 26:381-386. In this in-vitro assay the number of mosquito landing on a warm body, simulating an attractive host treated with the tested stimuli, was measured in order to assess the repellence effect.
as §2, with “to Aedes” for “to A.”, “lux).” for “lux). Further information is provided in the accompanying examples.,”
(§4) In addition, since the inventors were interested by assessing spatial repellence added or not to a deterrent effect, the substance was applied using two different technics. Whether, as in Kröber et al. (2010), both deterrent and repellent effect were investigated (i.e. similar effect than most body care applications such as lotion) and the substances was applied on a sandblasted glass Petri dish placed on top of the warm body. Whether only the spatial repellence was investigated (i.e. similar effect than most home care applications such as liquid electric dispenser) and the substance was introduced in the cage space thanks to a forced evaporation system as described in Chappuis C J-F, Niclass Y, Vuilleumier C, Starkenmann C. 2015. Quantitative Headspace Analysis of Selected Odorants from Latrines in Africa and India. Environ. Sci. Technol. 49:6134-6140.
(§5) As stated in Kröber et al. (2010), selected 10-12 days old hungry females, that had ad libitum access to 10% sugar solution but were not blood-fed, were selected for the assay.
The forced evaporation system allows to fill the volume of the cage with stimuli tested, (2-methyl-4-oxo-3-prop-2-ynylcyclopent-2-en-1-yl) 2,2-dimethyl-3-(2-methylprop-1-enyl)cyclopropane-1-carboxylate (prallethrin) and N,N-diethyl-3-methylbenzamide (DEET) being used as benchmarks. In order to limit potential dead volumes in the cage, five flushes of the cage were made before starting the 2 minutes test during which the number of mosquito landings was counted.

Aedes aegypti [2] = assay: in vitro Warm Body assay, substance applied on glass Petri dish on top of the warm body (deterrence and repellence); format: in vivo
Method: as §1, §2, §3
as §2, with “to Aedes” for “to A.”, “lux).” for “lux). Further information is provided in the accompanying examples.,”
as §4, §5
On the sandblasted glass Petri dish covering the warm body (28.3 cm^2), 100 µL of the substances diluted at different concentrations in ethanol was applied. The number of mosquito landing on the warm body was counted for each stimuli, N,N-diethyl-3-methylbenzamide (DEET) and ethyl 3-[acetyl(butyl)amino]propanoate (IR3535) being used as benchmarks and pure ethanol as control.

[3] = 0.04% in ethanol, ethanol control 67.0±8.8 landings
[4] = 1% in ethanol, ethanol control 67.0±8.8 landings
[5] = […] in ethanol, ethanol control 67.0±8.8 landings
[6] = 0.0017 µg/L air, without substance 56.0±3.6
[7] = 0.017 µg/L air, without substance 56.0±3.6
[8] = 0.17 µg/L air, without substance 56.0±3.6
[9] = 17 µg/L air, without substance 56.0±3.6
[10] = 0.04% in ethanol, ethanol control 67.1±9.1 landings
[11] = 1% in ethanol, ethanol control 67.1±9.1 landings
[12] = […] in ethanol, ethanol control 67.1±9.1 landings

Row | Compound | number of mosquitoes landing within 2 minutes on the warm body (Aedes aegypti [2]; [3]) | number of mosquitoes landing within 2 minutes on the warm body (Aedes aegypti [2]; [4]) | number of mosquitoes landing within 2 minutes on the warm body (Aedes aegypti [2]; [5]) | number of mosquitoes landing within 2 minutes on the warm body, air in the cage saturated with stimulus (Aedes aegypti [1]; [6]) | number of mosquitoes landing within 2 minutes on the warm body, air in the cage saturated with stimulus (Aedes aegypti [1]; [7]) | number of mosquitoes landing within 2 minutes on the warm body, air in the cage saturated with stimulus (Aedes aegypti [1]; [8]) | number of mosquitoes landing within 2 minutes on the warm body, air in the cage saturated with stimulus (Aedes aegypti [1]; [9]) | number of mosquitoes landing within 2 minutes on the warm body (Aedes aegypti [2]; [10]) | number of mosquitoes landing within 2 minutes on the warm body (Aedes aegypti [2]; [11]) | number of mosquitoes landing within 2 minutes on the warm body (Aedes aegypti [2]; [12]) | other results
1 | OCCc1ccccc1 [2-phenylethanol] | 46.0 | 0.0 | 72.0 | – | – | – | – | – | – | – | number of mosquitoes landing within 2 minutes on the warm body, air in the cage saturated with stimulus (Aedes aegypti [1]; 0.0017 µg/L air, without substance 54.1±4.9): 12.0; number of mosquitoes landing within 2 minutes on the warm body, air in the cage saturated with stimulus (Aedes aegypti [1]; 0.017 µg/L air, without substance 54.1±4.9): 30.0; number of mosquitoes landing within 2 minutes on the warm body, air in the cage saturated with stimulus (Aedes aegypti [1]; 0.17 µg/L air, without substance 54.1±4.9): 25.0; number of mosquitoes landing within 2 minutes on the warm body, air in the cage saturated with stimulus (Aedes aegypti [1]; 1.7 µg/L air, without substance 54.1±4.9): 51.0; number of mosquitoes landing within 2 minutes on the warm body, air in the cage saturated with stimulus (Aedes aegypti [1]; 17 µg/L air, without substance 54.1±4.9): 30.0; landing decrease (Aedes aegypti [1]; highest dose tested): 41%
2 | CC(C)C(=O)OCCc1ccccc1 [2-phenylethyl 2-methylpropanoate] | 55.0 | 2.0 | 90.0 | – | – | – | – | – | – | – | –
3 | CC(=O)OC1CC(C)CCC1C(C)C (stereo not shown) [5-methyl-2-propan-2-ylcyclohexyl] acetate] | – | – | – | 31.5 | 24.0 | 17.5 | 25.0 | 16.0 | 10.0 | 22.0 | number of mosquitoes landing within 2 minutes on the warm body, air in the cage saturated with stimulus (Aedes aegypti [1]; 1.7 µg/L air, without substance 56.0±3.6): 9.0
4 | CCCCCCC1CCCC(=O)O1 (stereo not shown) [6-hexyloxan-2-one] | – | – | – | 31.0 | 28.0 | 4.0 | 5.0 | 13.0 | 5.0 | 74.0 | landings in 2 minutes (Aedes aegypti [1]; dose of 0.17 µg/L of air): less than five
5 | CC1=CC[C@@H]2[C@H](C1)C2(C)C [(1S,6R)-3,7,7-trimethylbicyclo[4.1.0]hept-3-ene] | 55.0 | 8.0 | 59.0 | – | – | – | – | – | – | – | –
